From ChEMBL document CHEMBL3399947, “Structure activity relationship of selective GABA uptake inhibitors” (Bioorg Med Chem, 2015)

Columns and labels:
Assay type in all cases: cell-based
[1] = biological target: T1, GABA transporter 2 (Mus musculus, UniProt P31651); experiment: Inhibition of mouse mGAT2 expressed in HEK293 cells assessed as inhibition of [3H]GABA uptake after 3 mins incubation by TopCount microplate scintillation counting analysis; conditions: read-out: IC50
T1 sequence (P31651 whole entry): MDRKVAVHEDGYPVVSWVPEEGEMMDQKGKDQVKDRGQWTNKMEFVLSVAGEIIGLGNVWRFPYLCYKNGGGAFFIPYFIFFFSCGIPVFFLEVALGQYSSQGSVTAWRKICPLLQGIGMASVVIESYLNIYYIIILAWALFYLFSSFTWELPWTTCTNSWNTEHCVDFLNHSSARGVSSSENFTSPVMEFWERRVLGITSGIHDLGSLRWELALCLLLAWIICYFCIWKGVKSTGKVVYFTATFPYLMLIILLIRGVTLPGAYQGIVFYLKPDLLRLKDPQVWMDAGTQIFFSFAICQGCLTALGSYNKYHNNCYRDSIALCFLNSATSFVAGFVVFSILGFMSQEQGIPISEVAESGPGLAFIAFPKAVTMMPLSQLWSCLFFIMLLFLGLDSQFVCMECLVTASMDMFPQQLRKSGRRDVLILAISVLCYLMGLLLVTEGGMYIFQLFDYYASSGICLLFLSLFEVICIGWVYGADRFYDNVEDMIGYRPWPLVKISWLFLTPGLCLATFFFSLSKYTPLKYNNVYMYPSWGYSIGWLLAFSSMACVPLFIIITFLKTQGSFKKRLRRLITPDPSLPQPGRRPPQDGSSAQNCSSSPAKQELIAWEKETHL

[2] = biological target: T2, GABA transporter 3 (Mus musculus, UniProt P31649); experiment: Inhibition of mouse mGAT3 expressed in HEK293 cells assessed as inhibition of [3H]GABA uptake after 3 mins incubation by TopCount microplate scintillation counting analysis
T2 sequence (P31649 whole entry): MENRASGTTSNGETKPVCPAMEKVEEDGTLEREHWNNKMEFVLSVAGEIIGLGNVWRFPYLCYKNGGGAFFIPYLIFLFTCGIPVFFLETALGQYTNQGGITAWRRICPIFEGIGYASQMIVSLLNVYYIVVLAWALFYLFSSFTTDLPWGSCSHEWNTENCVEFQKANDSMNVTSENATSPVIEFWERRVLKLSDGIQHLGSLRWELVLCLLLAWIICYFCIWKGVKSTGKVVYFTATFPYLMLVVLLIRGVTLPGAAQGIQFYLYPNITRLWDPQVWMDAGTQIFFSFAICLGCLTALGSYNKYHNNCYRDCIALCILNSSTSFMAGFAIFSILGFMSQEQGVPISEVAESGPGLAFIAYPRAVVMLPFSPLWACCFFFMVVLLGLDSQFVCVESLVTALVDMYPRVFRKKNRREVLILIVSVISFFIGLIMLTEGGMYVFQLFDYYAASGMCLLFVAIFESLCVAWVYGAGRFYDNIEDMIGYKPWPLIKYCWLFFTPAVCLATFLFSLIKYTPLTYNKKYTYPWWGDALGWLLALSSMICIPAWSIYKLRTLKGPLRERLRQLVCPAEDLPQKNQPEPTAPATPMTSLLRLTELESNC

[3] = biological target: T3, GABA transporter 4 (Mus musculus, UniProt P31650); experiment: Inhibition of mouse mGAT4 expressed in HEK293 cells assessed as inhibition of [3H]GABA uptake after 3 mins incubation by TopCount microplate scintillation counting analysis; conditions: read-out: IC50
T3 sequence (P31650 whole entry): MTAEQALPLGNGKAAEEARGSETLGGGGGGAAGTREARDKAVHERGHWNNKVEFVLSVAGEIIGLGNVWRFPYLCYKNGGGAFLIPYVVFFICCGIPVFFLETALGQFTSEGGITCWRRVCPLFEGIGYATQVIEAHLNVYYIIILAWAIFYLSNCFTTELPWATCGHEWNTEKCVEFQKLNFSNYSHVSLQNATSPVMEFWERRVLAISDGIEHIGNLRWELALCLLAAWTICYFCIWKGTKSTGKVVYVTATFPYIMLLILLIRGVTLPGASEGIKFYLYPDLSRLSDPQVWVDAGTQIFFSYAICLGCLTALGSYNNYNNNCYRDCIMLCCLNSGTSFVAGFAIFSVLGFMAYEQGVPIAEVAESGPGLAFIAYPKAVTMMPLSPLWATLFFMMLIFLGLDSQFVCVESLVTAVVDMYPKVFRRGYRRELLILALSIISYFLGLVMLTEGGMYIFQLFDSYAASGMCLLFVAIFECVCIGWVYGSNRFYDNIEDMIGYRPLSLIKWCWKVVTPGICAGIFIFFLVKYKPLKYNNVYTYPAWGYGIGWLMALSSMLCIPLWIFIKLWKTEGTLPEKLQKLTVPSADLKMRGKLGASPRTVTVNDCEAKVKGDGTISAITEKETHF

[4] = biological target: Sodium- and chloride-dependent GABA transporter 1 (Mus musculus, UniProt P31648); experiment: Inhibition of mouse mGAT1 expressed in HEK293 cells assessed as inhibition of [3H]GABA uptake after 3 mins incubation by TopCount microplate scintillation counting analysis

Structure (SMILES) | IC50 [1] [µM] | IC50 ([2]; read-out: IC50) [µM] | IC50 [3] [µM] | IC50 ([2]; read-out: pIC50 (converted)) [µM] | IC50 ([4]; read-out: IC50) [µM] | IC50 ([4]; read-out: pIC50 (converted)) [µM]
COc1ccccc1C1(O)CCN(CCCn2c3ccccc3c3ccccc32)CC1 | 1.4 | 41 |  |  |  | 
CCOC(=O)[C@H]1CCCC[C@H]1N(C)CCC=C(c1sccc1C)c1sccc1C | 201 | 654 | 1220 | 646 | 604 | 
CN(CCC=C1c2ccccc2CCc2ccccc21)[C@@H]1CCCC[C@@H]1CO | 50 | 153 | 171 |  | 286 | 
CN(CCOC(c1ccc(C(F)(F)F)cc1)c1ccc(C(F)(F)F)cc1)[C@H]1CCCC[C@H]1CO | 133 | 328 | 181 |  | 359 | 
CN(CCOC(c1ccc(C(F)(F)F)cc1)c1ccc(C(F)(F)F)cc1)[C@@H]1CCCC[C@@H]1CO | 63.3 | 119 | 866 |  | 223 | 
CCOC(=O)[C@@H]1CCCC[C@@H]1N(C)CCC=C(c1sccc1C)c1sccc1C | 217 | 602 | 835 |  | 801 | 
CCOC(=O)[C@H]1CCCC[C@H]1N(C)CCON=C(c1ccccc1)c1ccccc1 | 114 | 1050 | 836 |  | 1240 | 
CCOC(=O)[C@@H]1CCCC[C@@H]1N(C)CCC=C1c2ccccc2CCc2ccccc21 | 375 | 1340 | 1670 |  | 1370 | 
CCOC(=O)[C@H]1CCCC[C@H]1N(C)CCC=C1c2ccccc2CCc2ccccc21 | 444 | 1400 | > 1000 | 1740 | 1190 | 
CCOC(=O)[C@@H]1CCCC[C@@H]1N(C)CCOC(c1ccc(C(F)(F)F)cc1)c1ccc(C(F)(F)F)cc1 | 417 | 652 | 1470 |  | 508 | 
CCOC(=O)[C@H]1CCCC[C@H]1N(C)CCOC(c1ccc(C(F)(F)F)cc1)c1ccc(C(F)(F)F)cc1 | 325 | 511 | 1210 |  | 425 | 
CNCCC=C(c1sccc1C)c1sccc1C | 179 | 137 | 254 |  | 160 | 
CNCCON=C(c1ccccc1)c1ccccc1 | 430 | 1050 | 829 |  | > 2000 | 
CNCCOC(c1ccc(C(F)(F)F)cc1)c1ccc(C(F)(F)F)cc1 | 190 | 58 | 143 |  | 163 | 
Cc1ccsc1C(=CCCNCCC(=O)O)c1sccc1C | 504 | 796 | 1730 |  | 171 | 
O=C(O)CCNCCON=C(c1ccccc1)c1ccccc1 | > 1000 | 290 | 310 |  | 6.99 | 
O=C(O)CCNCCC=C1c2ccccc2CCc2ccccc21 | 1380 | 3250 | 4060 |  | 281 | 
Cc1ccsc1C(=CCCN(C)CCC(=O)O)c1sccc1C | 937 | 343 | 1280 |  | 966 | 
CN(CCON=C(c1ccccc1)c1ccccc1)CCC(=O)O | 7520 | 674 | 768 |  | 9.7 | 
CN(CCC=C1c2ccccc2CCc2ccccc21)CCC(=O)O | 735 | 1050 | 1700 |  | 77.7 | 
CN(CCCP(=O)(O)O)CCON=C(c1ccccc1)c1ccccc1 | > 1000 | > 1000 | > 1000 |  | > 1000 | 

Structure (SMILES) | IC50 [1] [µM] | IC50 ([2]; read-out: IC50) [µM] | IC50 [3] [µM] | IC50 ([2]; read-out: pIC50 (converted)) [µM] | IC50 ([4]; read-out: IC50) [µM] | IC50 ([4]; read-out: pIC50 (converted)) [µM]
CN(CCC=C1c2ccccc2CCc2ccccc21)CCCP(=O)(O)O | > 1000 | > 1000 | > 1000 |  | > 1000 | 
CN(CCCS(=O)(=O)O)CCON=C(c1ccccc1)c1ccccc1 | > 1000 | > 1000 | > 1000 |  | 828 | 
Cc1ccsc1C(=CCCn1cc(CNCCC(=O)O)nn1)c1sccc1C | > 2000 | > 2000 | > 2000 |  | > 2000 | 
O=C(O)CCNCc1cn(CCOC(c2ccc(C(F)(F)F)cc2)c2ccc(C(F)(F)F)cc2)nn1 | > 1000 | > 1000 | > 1000 |  | > 1000 | 
Cc1ccsc1C(=CCCN1CCNCC(C(=O)O)C1)c1sccc1C (centres undefined) | 370 | 844 | 1740 |  | 43.8 | 
CCN1CCN(CCC=C(c2sccc2C)c2sccc2C)CC(C(=O)O)C1 (centres undefined) | 318 | 1700 | > 1000 |  | 483 | 
CCC(C)N1CCN(CCC=C(c2sccc2C)c2sccc2C)CC(C(=O)O)C1 (centres undefined) | 160 | > 1000 | > 1000 |  | > 1000 | 
CCCCN1CCN(CCC=C(c2sccc2C)c2sccc2C)CC(C(=O)O)C1 (centres undefined) | 80.6 | 650 | 681 |  | 185 | 501
C=CCN1CCN(CCC=C(c2sccc2C)c2sccc2C)CC(C(=O)O)C1 (centres undefined) | 160 | 1100 | 563 |  | 549 | 
Cc1ccsc1C(=CCCN1CCN(Cc2ccccc2)CC(C(=O)O)C1)c1sccc1C (centres undefined) | 309 | > 1000 | > 1000 |  | > 1000 | 
Cc1ccsc1C(=CCCN1CCN(CCO)CC(C(=O)O)C1)c1sccc1C (centres undefined) | > 1000 | > 1000 | > 1000 |  | > 1000 | 
Cc1ccsc1C(=CCCN1CCN(C(=N)N)CC(C(=O)O)C1)c1sccc1C (centres undefined) | > 1000 | > 1000 | > 1000 |  | > 1000 | 
O=C(O)C1CNCCN(CCON=C(c2ccccc2)c2ccccc2)C1 (centres undefined) | > 1000 | > 1000 | > 1000 |  | 667 | 5250
CCN1CCN(CCON=C(c2ccccc2)c2ccccc2)CC(C(=O)O)C1 (centres undefined) | > 1000 | > 1000 | > 1000 |  | > 1000 | 
CCCCN1CCN(CCON=C(c2ccccc2)c2ccccc2)CC(C(=O)O)C1 (centres undefined) | > 1000 | > 1000 | > 1000 |  | > 1000 | 
Cc1ccsc1C(=CCCN1CCN(CCON=C(c2ccccc2)c2ccccc2)CC(C(=O)O)C1)c1sccc1C (centres undefined) | > 1000 | > 1000 | > 1000 |  | > 1000 | 
O=C(O)C1CN(CCO)CCN(CCON=C(c2ccccc2)c2ccccc2)C1 (centres undefined) | > 1000 | > 1000 | > 1000 |  | > 1000 | 
COc1ccc(C(OCCN2CCC[C@H](C(=O)O)C2)(c2ccc(OC)cc2)c2ccc(OC)cc2)cc1 | 22 |  |  |  |  | 
CN(CCON=C(c1ccccc1)c1ccccc1)[C@@H]1CCCC[C@H]1C(=O)O (racemic) | 1100 | > 2000 | > 2000 |  |  | 
Cc1ccsc1C(=CCCN1CCC[C@@H](C(=O)O)C1)c1sccc1C [TIAGABINE] |  | > 300 |  |  |  | 
